Laboratory results published in US20150087683A1, “TREATMENT METHOD FOR STEROID RESPONSIVE DERMATOSES” (GlaxoSmithKline Intellectual Property (No.2) Limited, priority 2012, published 2015).
“And” between values parts separate entries of the source, which are not always exact repeats. Identical values can stand only once.

How the values were obtained:
MCF7 cells = assay: CMap analysis using psoriasis disease signature against mRNA expression profiles of compound-treated MCF7 cells (Assay #1); type: cell-based, human
Description: A general overview of the experimental protocol is indicated below.
The flask is incubated at 37 C for ˜2 minutes to dissociate the cells. • The dissociated cells are harvested with culture media, ˜10 ml/flask. • The harvested cell suspensions are pooled and re-suspended to ensure a homogenous suspension. • The suspension is divided into approximately 1e10̂6 cells per well. • The cells are spun down and re-suspended in fresh culture media to 1e10̂6 cells/2 mL media. • 2 ml of the adjusted cell suspension is dispensed into each well of 6-well plates. • The 6-well plates are incubated overnight at approximately 37 C: 5% CO2.
• An assay block, containing 3 ul 10 mM compound (small molecule)/well, is allowed to return to room temperature. • Culture media is warmed to 37 C. • 600 ul culture media is added to each well of assay block (containing 3 ul 10 mM compound). (=200× dilution) • Intermediate dilution is then 50 uM. • 500 ul of the intermediate dilution is transferred directly on to cells in 6-wells plated (in 2 ml) from previous day. (=5× dilution) • Cells then have 2.5 ml media on them. Final compound concentration is then 10 uM, final DMSO concentration is then 0.1%. • Treated cells are then returned to the incubator and treatment time is noted. • By way of example, if the final treatment concentration is to be something other than 10 uM, the stock should be adjusted first in DMSO so that the […] dilution still delivers 0.1% DMSO final.
• Fresh RLT buffer (QIAGEN)+2-Me is prepared. • After 6 hours of treatment, the 6-well plates are removed from incubator. • The test compound is aspirated from the cell monolayer. • 350 ul of RLT buffer is added per well. • Cells are scraped and the contents of each well is transferred to an appropriately labeled microfuge tube. • Freeze and store the samples at −80 C.
Frozen samples were shipped to Expression Analysis, Inc. Durham N.C. (EA) to generate RNA profiling data. To generate whole genome RNA expression profiles, samples were processed for RNA purification and hybridization to IllumanHT-12-V4 Expression BeadChips.
The significance of particular set of compound instance(s) of interest is estimated by permutation pvalue.

plaques of psoriasis = assay: Clinical result: psoriasis plaques in a patient of cancer trial PCS113124; type: in vivo; settings: human, patient 1200
Excerpt: Compound C was in human clinical trials for the treatment of cancer.

primary keratinocytes = assay: CMap analysis using psoriasis disease signature against mRNA expression profiles of compound-treated primary keratinocytes (Assay #2); type: cell-based, human; settings: for Ks down / Ks up / Raw Score / Scale Score: Keratinocyte
Description: The general procedure of Assay #1 was repeated with Compound C with substitution of primary keratinocytes. Primary keratinocytes were purchased from Zen-Bio, Inc. and grown in Zen-Bio, Inc. human adult keratinocyte growth medium (cat# KM-2).
Following the general procedure of Assay #1 for Day 1, keratinocytes plated on T225 flasks were trypsinized and resuspended in 17.4 mL of KM-2 medium. The cells were then seeded in the 6-well plates with 0.5×10^6 cells per well in a total 4 mL KM-2 medium.
Following the general procedure of Assay #1 for Day 2, keratinocytes were treated with the compound at the final concentrations of 1 uM and 10 uM for 6 hours. KM-2 medium containing test compound is aspirated from the cell monolayer. 350 ul of RLT buffer is added per well, the contents in each well were scraped and transferred to an appropriately labeled microfuge tube. Samples were frozen and stored at −80 C.
The subsequent sample processing, RNA purification and hybridization to the chips for microarray experiments were conducted by Expression Analysis, Inc. Durham N.C. (EA).

## Cn1ncc(Cl)c1-c1cc(C(=O)N[C@H](CN)Cc2ccc(F)c(F)c2)oc1Cl [Compound C, N-{(1S)-2-amino-1-[(3,4-difluorophenyl)methyl]ethyl}-5-chloro-4-(4-chloro-1-methyl-1H-pyrazol-5-yl)-2-furancarboxamide]
MCF7 cells; MCF7, 10 uM, 6 hours treatment
  Enrichment Score: −0.8835
  Mean CMap Score: −0.1867
MCF7 cells; MCF7, 10 uM, 6 hours treatment, individual instance scores
  CMap Score Distribution: (−0.17 −0.17 and −0.21)
MCF7 cells; MCF7 cells
  gene expression changes versus gene expression changes observed in psoriasis: negatively correlated
Plaques of psoriasis
  course of mild plaques of psoriasis during treatment: generally got better and even disappeared at times
Primary keratinocytes; 1 uM, Day 1
  Ks down: 0.112
  Ks up: −0.22
  Raw Score: −0.3324
  Scale Score: −0.6723
Primary keratinocytes; 1 uM, Day 2
  Ks down: 0.172
  Ks up: −0.248
  Raw Score: −0.4204
  Scale Score: −0.8504
Primary keratinocytes; 1 uM, Day 3
  Ks down: 0.124
  Ks up: −0.139
  Raw Score: −0.2625
  Scale Score: −0.5309
Primary keratinocytes; 10 uM, Day 1
  Ks down: 0.112
  Ks up: −0.213
  Raw Score: −0.3251
  Scale Score: −0.6576
Primary keratinocytes; 10 uM, Day 2
  Ks down: 0.115
  Ks up: −0.296
  Raw Score: −0.4104
  Scale Score: −0.8302
Primary keratinocytes; 10 uM, Day 3
  Ks down: 0.114
  Ks up: −0.241
  Raw Score: −0.3551
  Scale Score: −0.7182
Primary keratinocytes; primary keratinocytes
  gene expression changes versus gene expression changes observed in psoriasis: negatively correlated
